Assay results: patent publication US20030055106A1, “Therapeutic uses of peroxometallic compounds” (priority 1999, published 2003)

Assays:
Leishmania major = experiment: Leishmania vaccination trial (adjuvant); design: species or system BALB/c mice; conditions: in vivo, Leishmania infection
Procedure: FIG. 10: Use of bpV(phen) as an adjuvant in Leishmania vaccination trial. BALB/c mice were inoculated with soluble Leishmania major antigen (SLA; 100 μg) with or without daily injection of bpV(phen) ([…]) for 5 days. Two weeks later animals received a second set of treatment as above. Control animals received either PBS or bpV(phen) alone without any SLA. At 4 weeks post-vaccination, animals were challenged with 5 million Leishmania major stationary phase promastigotes injected in the right hind footpad. Progression of infection was followed by measuring footpad thickness with a caliper on a weekly basis. Differences measured for reduced footpad thickness were significant (p<0.01, Student's t test, n=5-10 animals per group) over their respective controls.
In the past, use of total and soluble Leishmania antigen (SLA) for vaccination has been reported and permitted some levels of protection against infectious challenges (85). Using a murine model, we have tested whether bpV(phen)-modulated cytokine and chemokine generation (as reported above) in combination with SLA administration could lead to protection against Leishmania infection. Mice have received PBS and bpv(phen) as controls, and SLA (100 μg) with or without daily bpV(phen) injection (500 nM, 5 days). All injections were done intra-peritoneally. […]

[1] = tested on: Th1 and Th2 cytokine genes in spleen; experiment: Cytokine gene expression in spleen (multi-probe RNase protection assay); assay type: in vivo, BALB/c mice; conditions: naive mice; up to 24 hr; in comparison to PBS
Description: FIG. 8: In vivo bpV(phen)-induced cytokine gene expression in spleen of BALB/c mice. Expression of Th1 (IFN-(, IL-2, IL-12) and Th2 (IL-4 and IL-10) cytokines were monitored in spleen of BALB/c mice in response to bpv(phen) over a 24-hr period. Expression of cytokine genes has been monitored using a multi-probe RNase protection assay as described in more detail below. Results obtained are representative of 3 experiments performed independently.

O.O.O.OO.OO.[K+].[OH-].[V].c1cnc2c(c1)ccc1cccnc12 [bpV(phen), potassium bisperoxo(1,10-phenanthroline)oxovanadate]
protection against infectious challenge (adjuvant potential) (Leishmania major): complete protection | cytokine gene expression in spleen (IL-12, IL-10, IL-2 and IFN) [1]: significantly up-regulated
